As usually defined, the IC50 is the concentration at which inhibition is half-maximal.

This passage reports IC50 results from patent publication US20230391748A1, “BICYCLIC INHIBITORS OF IRAK” (priority 2022, published 2023).

The subject of one assay is IL23p19 in THP-1 Cells. The assay is described as follows: LPS Induced IL23p19 in THP-1 Cells (with IFNγ Primed) Assay. It counts as cell-based. To be noted: Homo sapiens, THP-1, 18 h, read-out: IL23 (THP, LPS) (IC50, μM). The essentials:
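THP-1 cells (50K/well) primed with IFNγ (50 ng/mL) about 18 h, then given compound and stimulated with LPS for 18 h at 37 °C. Secreted IL-23p19 measured by sandwich ELISA with chemiluminescent read-out, giving EC50. Cell Titer Glo used on the remaining cells for toxicity.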

Assay [1] concerns TNF-α in Human Primary Monocyte-Derived Dendritic Cells. Kind of assay: Gardiquimod-Induced TNF-α in Human Primary Monocyte-Derived Dendritic Cells. Type of assay: cell-based. To be noted: Dendritic cell, IFNγ-primed monocyte-derived dendritic cells, 4 μg/ml Gardiquimod, 6 hours, TNF-α ELISA, read-out: TNFα (DC, GARD) (IC50). In a few lines: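 Monocytes differentiated 7 days with GM-CSF and IL-4, then primed 24 h with 50 ng/ml IFN-γ. Compound added 1 h before 6 h stimulation with 4 μg/ml Gardiquimod, 0.5% DMSO final. Supernatant TNF-α measured by chemiluminescent ELISA; EC50 from curve fitting.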
(In general: An ELISA detects its analyte on a solid surface through an enzyme-linked reagent.)

In a further assay the test system is TNF-α in human PBMCs. Kind of assay: R848-induced TNF-α in human PBMCs Assay. It counts as cell-based. To be noted: Homo sapiens, PBMC, 4 h, read-out: TNFα (PBMC, R848) (IC50, μM). In a few lines:
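Human PBMCs at 200K/well were pretreated with compound, then R848-stimulated for 4 h at 37 °C, 5% CO2. Supernatant TNF-α quantified by chemiluminescent ELISA; EC50 from curve fitting.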

The target in another assay is IRAK4 (Homo sapiens (Human), UniProt Q9NWZ3). Kind of assay: IRAK4 ADP-Glo Assay. It counts as biochemical. To be noted: MBP substrate. The essentials: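 Human IRAK4 kinase reaction with MBP substrate plus ATP in Tris-HCl/MgCl2/BSA/DTT buffer, pH 7.4, run 60 min at room temperature or 30 min at 30 °C. ADP formed was measured by ADP-Glo luminescence after ATP depletion (40 min) and detection reagent (30 min).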
(ADP-Glo turns the ADP formed in a reaction into a luminescent signal.)

Chain of IRAK4 (Q9NWZ3 whole entry): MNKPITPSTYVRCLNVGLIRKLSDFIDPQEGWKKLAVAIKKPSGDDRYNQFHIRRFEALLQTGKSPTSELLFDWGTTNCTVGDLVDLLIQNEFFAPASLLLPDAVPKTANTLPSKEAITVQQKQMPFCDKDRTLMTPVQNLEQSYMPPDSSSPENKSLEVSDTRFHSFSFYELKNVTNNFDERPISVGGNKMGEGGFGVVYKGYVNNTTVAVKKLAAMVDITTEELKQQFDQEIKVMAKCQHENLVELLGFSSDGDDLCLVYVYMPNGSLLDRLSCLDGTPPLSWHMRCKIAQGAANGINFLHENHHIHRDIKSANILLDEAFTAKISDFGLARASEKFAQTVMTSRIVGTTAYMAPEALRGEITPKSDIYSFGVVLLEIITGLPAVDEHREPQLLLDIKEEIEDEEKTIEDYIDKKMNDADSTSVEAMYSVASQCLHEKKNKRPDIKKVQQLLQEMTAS

For the compound `CC(C)Oc1cc2c(OC[C@@H]3CC(F)(F)C(=O)N3)ncc(-c3cnn(C4CCOCC4)c3)c2cc1C(N)=O` [Compound I-70, (S)-1-((4,4-difluoro-5-oxopyrrolidin-2-yl)methoxy)-7-isopropoxy-4-(1-(tetrahydro-2H-pyran-4-yl)-1H-pyrazol-4-yl)isoquinoline-6-carboxamide], the IC50 worked out at 2.26 µM in the assay with IL23p19 in THP-1 Cells, 82.7 nM in assay [1], 0.292 µM in the assay on TNF-α in human PBMCs and 6.8 nM against IRAK4.
The matching figures for `CC(C)Oc1cc2c(OC[C@@H]3CC(F)(F)C(=O)N3)ncc(-c3cnn(CC4CCOCC4)c3)c2cc1C(N)=O` [Compound I-71, (S)-1-((4,4-difluoro-5-oxopyrrolidin-2-yl)methoxy)-7-isopropoxy-4-(1-((tetrahydro-2H-pyran-4-yl)methyl)-1H-pyrazol-4-yl)isoquinoline-6-carboxamide]: 0.848 µM, 148 nM, 0.174 µM and 6.4 nM.
On the same counts, the results for `CC(C)Oc1cc2c(OC[C@@H]3CC(F)(F)C(=O)N3)ncc(-c3cnn(CCC4CCOCC4)c3)c2cc1C(N)=O` [Compound I-72, (S)-1-((4,4-difluoro-5-oxopyrrolidin-2-yl)methoxy)-7-isopropoxy-4-(1-(2-(tetrahydro-2H-pyran-4-yl)ethyl)-1H-pyrazol-4-yl)isoquinoline-6-carboxamide] are 0.872 µM, 273 nM, 0.183 µM and 7 nM.
The matching figures for `CC(C)Oc1cc2c(OC[C@@H]3CC(F)(F)C(=O)N3)ncc(-c3cnn([C@H]4C[C@@H](N(C)C)C4)c3)c2cc1C(N)=O` [Compound I-73, 1-(((S)-4,4-difluoro-5-oxopyrrolidin-2-yl)methoxy)-4-(1-(cis-3-(dimethylamino)cyclobutyl)-1H-pyrazol-4-yl)-7-isopropoxyisoquinoline-6-carboxamide]: 1.04 µM, 259 nM, 0.203 µM and 3 nM.
Take `CC(C)Oc1cc2c(OC[C@@H]3CC(F)(F)C(=O)N3)ncc(-c3cnn(C4CCN(C(=O)OC(C)(C)C)CC4)c3)c2cc1C(N)=O` [Compound I-74, tert-butyl (S)-4-(4-(6-carbamoyl-1-((4,4-difluoro-5-oxopyrrolidin-2-yl)methoxy)-7-isopropoxyisoquinolin-4-yl)-1H-pyrazol-1-yl)piperidine-1-carboxylate]: the IC50 in the assay on IL23p19 in THP-1 Cells was 0.395 µM; in assay [1], 493 nM; in the assay on TNF-α in human PBMCs, 0.141 µM; against IRAK4 it was 11.2 nM.
The matching figures for `CC(C)Oc1cc2c(OC[C@@H]3CC(F)(F)C(=O)N3)ncc(-c3cnn(C4CCNCC4)c3)c2cc1C(N)=O` [Compound I-75, (S)-1-((4,4-difluoro-5-oxopyrrolidin-2-yl)methoxy)-7-isopropoxy-4-(1-(piperidin-4-yl)-1H-pyrazol-4-yl)isoquinoline-6-carboxamide]: 85.4 µM, 4580 nM, 6.64 µM and 4 nM.
The matching figures for `CC(C)Oc1cc2c(OC[C@@H]3CC(F)(F)C(=O)N3)ncc(-c3cnn(C4CCN(C)CC4)c3)c2cc1C(N)=O` [Compound I-76, (S)-1-((4,4-difluoro-5-oxopyrrolidin-2-yl)methoxy)-7-isopropoxy-4-(1-(1-methylpiperidin-4-yl)-1H-pyrazol-4-yl)isoquinoline-6-carboxamide]: 1.11 µM, 452 nM, 0.375 µM and 2.4 nM.
On the same counts, the results for `CCO[C@H]1CC[C@H](n2cc(-c3cnc(OC[C@@H]4CC(F)(F)C(=O)N4)c4cc(OC(C)C)c(C(N)=O)cc34)cn2)CC1` [Compound I-77, 1-(((S)-4,4-difluoro-5-oxopyrrolidin-2-yl)methoxy)-4-(1-(trans-4-ethoxycyclohexyl)-1H-pyrazol-4-yl)-7-isopropoxyisoquinoline-6-carboxamide] are 0.152 µM, 349 nM, 0.12 µM and 7 nM.
`CC(C)Oc1cc2c(OC[C@@H]3CC(F)(F)C(=O)N3)ncc(-c3cnn([C@H]4CC[C@](C)(O)CC4)c3)c2cc1C(N)=O` [Compound I-78, 1-(((S)-4,4-difluoro-5-oxopyrrolidin-2-yl)methoxy)-4-(1-((1r,4S)-4-hydroxy-4-methylcyclohexyl)-1H-pyrazol-4-yl)-7-isopropoxyisoquinoline-6-carboxamide]: the IC50 with IL23p19 in THP-1 Cells came to 0.162 µM; in assay [1] it was 652 nM; in the assay on TNF-α in human PBMCs, 0.234 µM; against IRAK4, 3.6 nM.
The matching figures for `CC(C)Oc1cc2c(O[C@@H]3CCCNC3)ncc(C#CC3CCOCC3)c2cc1C(N)=O` [Compound I-86, (R)-7-isopropoxy-1-(piperidin-3-yloxy)-4-((tetrahydro-2H-pyran-4-yl)ethynyl)isoquinoline-6-carboxamide]: 5.29 µM, 1030 nM, 1.74 µM and 91.3 nM.
On the same counts, the results for `CC(C)Oc1cc2c(O[C@@H]3CCCNC3)ncc(C#CCC3CCOCC3)c2cc1C(N)=O` [Compound I-87, (R)-7-isopropoxy-1-(piperidin-3-yloxy)-4-(3-(tetrahydro-2H-pyran-4-yl)prop-1-yn-1-yl)isoquinoline-6-carboxamide] are 5.02 µM, 776 nM, 1.97 µM and 52.2 nM.
On the same counts, the results for `CC(C)Oc1cc2c(O[C@@H]3CCCN(C(=O)CC#N)C3)ncc(C#CC3(O)CCCC3)c2cc1C(N)=O` [Compound I-88, (R)-1-((1-(2-cyanoacetyl)piperidin-3-yl)oxy)-4-((1-hydroxycyclopentyl)ethynyl)-7-isopropoxyisoquinoline-6-carboxamide] are 2.07 µM, 696 nM, 0.903 µM and 29.7 nM.
As for `CC(C)Oc1cc2c(O[C@@H]3CCCN(C(=O)CC#N)C3)ncc(C#CC3CCOCC3)c2cc1C(N)=O` [Compound I-89, (R)-1-((1-(2-cyanoacetyl)piperidin-3-yl)oxy)-7-isopropoxy-4-((tetrahydro-2H-pyran-4-yl)ethynyl)isoquinoline-6-carboxamide], the IC50 in the assay on IL23p19 in THP-1 Cells turned out to be 1.71 µM; in assay [1] it was 530 nM; in the assay with TNF-α in human PBMCs it was 0.556 µM; against IRAK4, 15.2 nM.
Regarding `CC(C)Oc1cc2c(O[C@@H]3CCCN(C(=O)CC#N)C3)ncc(C#CCC3CCOCC3)c2cc1C(N)=O` [Compound I-90, (R)-1-((1-(2-cyanoacetyl)piperidin-3-yl)oxy)-7-isopropoxy-4-(3-(tetrahydro-2H-pyran-4-yl)prop-1-yn-1-yl)isoquinoline-6-carboxamide], the IC50 in the assay with IL23p19 in THP-1 Cells worked out at 1.42 µM; in assay [1] it was 616 nM; in the assay on TNF-α in human PBMCs it was 0.433 µM; at IRAK4, 20.5 nM.
On the same counts, the results for `CC(C)Oc1cc2c(O[C@@H]3CCCN(C(=O)CC#N)C3)ncc(C#CC3(O)CCOCC3)c2cc1C(N)=O` [Compound I-91, (R)-1-((1-(2-cyanoacetyl)piperidin-3-yl)oxy)-4-((4-hydroxytetrahydro-2H-pyran-4-yl)ethynyl)-7-isopropoxyisoquinoline-6-carboxamide] are 10.2 µM, 15400 nM, 3.76 µM and 20.7 nM.
On the same counts, the results for `CC(C)Oc1cc2c(O[C@@H]3CCCN(C(=O)CC#N)C3)ncc(C#CC3(O)CCN(C(=O)OC(C)(C)C)CC3)c2cc1C(N)=O` [Compound I-92, tert-butyl (R)-4-((6-carbamoyl-1-((1-(2-cyanoacetyl)piperidin-3-yl)oxy)-7-isopropoxyisoquinolin-4-yl)ethynyl)-4-hydroxypiperidine-1-carboxylate] are 4.92 µM, 13900 nM, 3.7 µM and 142 nM.
The matching figures for `CC(C)Oc1cc2c(O[C@@H]3CCCN(C(=O)CC#N)C3)ncc(C#CC3CCN(C(=O)OC(C)(C)C)CC3)c2cc1C(N)=O` [Compound I-95, tert-butyl (R)-4-((6-carbamoyl-1-((1-(2-cyanoacetyl)piperidin-3-yl)oxy)-7-isopropoxyisoquinolin-4-yl)ethynyl)piperidine-1-carboxylate]: 1.56 µM, 842 nM, 2.1 µM and 68.5 nM.
Regarding `CC(C)Oc1cc2c(O[C@@H]3CCCN(C(=O)CC#N)C3)ncc(C#CC3CCNCC3)c2cc1C(N)=O` [Compound I-96, (R)-1-((1-(2-cyanoacetyl)piperidin-3-yl)oxy)-7-isopropoxy-4-(piperidin-4-ylethynyl)isoquinoline-6-carboxamide], the IC50 in the assay on IL23p19 in THP-1 Cells turned out to be 7.84 µM; in assay [1] it was 1170 nM; with TNF-α in human PBMCs, 1.71 µM; against IRAK4, 8 nM.
